These results are taken from article PMC8558179, “The C-terminal peptide of CCL21 drastically augments CCL21 activity through the dendritic cell lymph node homing receptor CCR7 by interaction with the receptor N-terminus” (Cellular and Molecular Life Sciences: CMLS, 2021).

Experiment [1] has as its system CCR6. In words: Gαi signaling, BRET cAMP assay at CCR6 in CHO cells. Type of experiment: cell-based. The settings on record: CCL20 + 10 µM TP71-111, CHO cells, n = 3. The procedure: For cAMP assays, adherent CHO cells were transfected using lipofectamine while suspension cells were transfected using the FectoPro method. Cells were seeded in a 6-well plate, either 500,000 (adherent cells) or 200,000 (suspension cells) cells/well. The next day the cells were transiently transfected with vectors encoding the human CCR7 and CAMYEL sensor (cAMP sensor using YFP-Epac-RLuc) in a 1:5 ratio using lipofectamine (6 µl/well) or FectoPro (4 µl/well). Lipofectamine transfections were terminated by changing to 2 ml fresh cultivation medium after 5 h, while Fectopro transfection was terminated after 3 h by adding 2.5 ml fresh cultivation medium and 2 µl FectoPro Boost reagent per well. The cells were incubated under standard cultivation conditions overnight. […] Emission signal from Rluc and eYFP was measured using the Envision machine at 530 and 480 nm and the BRET signal determined as the ratio between (eYFP/Rluc).
Supplementary file 18_2021_3930_MOESM2_ESM.png: Supplementary file2 C21TP also boosts signaling of the DC expressed chemokine receptor CCR6. […] B) CCL20-induced CCR6 Gαi –signaling in CHO cells quantified using the BRET Based cAMP assay. […] Statistical significance was calculated using two-way ANOVA with Sidek’s correction for multiple test. *P<0.05, **P <0.01, ***P <0.001, ns, not significant (PNG 878 KB)
For orientation: Bioluminescence resonance energy transfer reports proximity on the nanometre scale.

Experiment [2] deals with CCR7 (primary T cells). The note with it: heterologous competition binding, apparent affinity; cited from earlier work. The text has this: In the absence of peptide, CCL19 and CCL21 contact CCR7 in different manners. The interaction of CCL21 depends on residues in the top of TM-3, -4 and -5 that are not important for CCL19 interaction with CCR7. The binding of these two chemokines induce different structural changes in CCR7 to disrupt old and create new hydrogen bonds. CCL21 binding to CCR7 is believed to involve movements within the majority of helical domains (TM2, -3, -4, -5, -6, and -7), whereas the changes induced by CCL19 are restricted to regions of TM3, -5, and -6 [37]. The conformational changes in CCR7 ind ...

On to “TP71-111: free CCL21 C-terminal peptide, residues 71–111 (41 amino acids, positively charged) (PSPQKPAQGCRKDRGASKTGKKGKGSKGCKRTERSQTPKGP; UniProt O00585 94-134, looked up, fragment)”, for which the “boosting of CCL20-induced signaling at CCR6” value in experiment [1] is “very similar to the boosting observed with CCL19 acting at CCR7”; in experiment [1] (listed as C21TP), “also boosts CCL20 signaling via CCR6”.

B1: CCL21: full-length chemokine (residues 1–111), CCR7 ligand, from R&D Systems (protein, UniProt O00585 24-134, looked up)
C-C motif chemokine 21: SDGGAQDCCLKYSQRKIPAKVVRSYRKQEPSLGCSIPAILFLPRKRSQAELCADPKELWVQQLMQHLDKTPSPQKPAQGCRKDRGASKTGKKGKGSKGCKRTERSQTPKGP
In the case of B1, in experiment [2], the “fold lower binding affinity of CCL21 in primary T cells” value was “sixfold lower binding affinity”.
